Laboratory results taken from US20050101674A1, “PPMP as a ceramide catabolism inhibitor for cancer treatment” (priority 2003, published 2005).
Read-outs that look alike come from different tables or passages of the source.

Tests used:
NALM-6 = assay: DIMSCAN cytotoxicity, ALL cell line NALM-6; type: cell-based; settings: NALM-6, 4-HPR+PPMP 1:1 molar ratio, +96 hours
From the text: (§1) In the following examples, the DIMSCAN assay is a cell survival assay, not merely an apoptosis assay, and therefore reflects cancer cell killing due to both apoptosis and necrosis. DIMSCAN correlates directly with more traditional clonogenic assays. Moreover, DIMSCAN drug resistance profiles of cell lines correlate with prior patient therapy. DIMSCAN has successfully predicted clinical activity in high-risk neuroblastoma patients for the following new agents: 13-cis-retinoic acid, BSO+L-PAM, and fenretinide. Cytotoxicity assays are performed in 96 well microplates using a semi automated Digital Image Microscopy (DIMSCAN) system that has a dynamic range of greater than 4-5 logs of cell kill. Briefly, following incubation with study drugs, fluorescein diacetate [10 μg/ml (a vital stain)] is added to the microplate and incubated for twenty minutes. Eosin-Y (800 μg/ml) is then added to quench background fluorescence in the medium and non-viable cells. The plates are then read on an inverted microscope with the relative fluorescence of each well determined by the video imaging system software designed for the DIMSCAN system. We have done comparison studies and have shown that the relative fluorescent values obtained by DIMSCAN correlate to cell density (standard counts by trypan blue exclusion) and clonogenicity assays. […]

[1] = tested on: SK-N-RA neuroblastoma cells; assay: Ceramide and glucosylceramide levels by [3H]-palmitic acid labeling and thin-layer chromatography, SK-N-RA; type: cell-based; settings: for 4-HPR-induced ceramide level / 4-HPR-induced glucosylceramide level: with 4-HPR 10 μM; for 4-HPR-induced glycosylceramide increase: FIG. 9 right panel
Protocol: Assays were performed at +24 h.
SK-N-RA neuroblastoma cells were exposed to drugs at 10 μM concentrations for the time indicated.

MOLT-3 = assay: DIMSCAN cytotoxicity, ALL cell line MOLT-3; type: cell-based; settings: MOLT-3, 4-HPR+PPMP 1:1 molar ratio, +96 hours
From the text: as §1

MOLT-4 = assay: DIMSCAN cytotoxicity, ALL cell line MOLT-4; type: cell-based; settings: MOLT-4, 4-HPR+PPMP 1:1 molar ratio, +96 hours
From the text: as §1

[2] = tested on: SK-N-RA neuroblastoma cells; assay: DIMSCAN cytotoxicity assay in SK-N-RA cells; type: cell-based; settings: combined with 4-HPR, +96 h
From the text: as §1, with “system.” for “system. We have done comparison studies and have shown that the relative fluorescent values obtained by DIMSCAN correlate to cell density (standard counts by trypan blue exclusion) and clonogenicity assays.”
Survival fraction was measured using a digital imaging fluorescence-based microscopy assay (DIMSCAN) with approximately 5 log sensitivity. […]

SMS-SB = assay: DIMSCAN cytotoxicity, ALL cell line SMS-SB; type: cell-based; settings: 4-HPR+PPMP 1:1, +96 hours
From the text: (§2) In the following examples, the DIMSCAN assay is a cell survival assay, not merely an apoptosis assay, and therefore reflects cancer cell killing due to both apoptosis and necrosis. DIMSCAN correlates directly with more traditional clonogenic assays. Moreover, DIMSCAN drug resistance profiles of cell lines correlate with prior patient therapy. DIMSCAN has successfully predicted clinical activity in high-risk neuroblastoma patients for the following new agents: 13-cis-retinoic acid, BSO+L-PAM, and fenretinide. Cytotoxicity assays are performed in 96 well microplates using a semi automated Digital Image Microscopy (DIMSCAN) system that has a dynamic range of greater than 4-5 logs of cell kill. Briefly, following incubation with study drugs, fluorescein diacetate [10 μg/ml (a vital stain)] is added to the microplate and incubated for twenty minutes. Eosin-Y (800 μg/ml) is then added to quench background fluorescence in the medium and non-viable cells. The plates are then read on an inverted microscope with the relative fluorescence of each well determined by the video imaging system software designed for the DIMSCAN system. We have done comparison studies and have shown that the relative fluorescent values obtained by DIMSCAN correlate to cell density (standard counts by trypan blue exclusion) and clonogenicity assays. The present invention is explained in greater detail in the following non-limiting examples.
(§3) Assayed by DIMSCAN at +96 hours. •=4-HPR; ▪=PPMP; □=4-HPR+PPMP; (1:1 molar ratio).

intact cells = settings: in intact cells; cited from earlier work
ALL cell lines = assay: Glucosylceramide and ceramide in ALL cell lines; settings: ALL cell lines examined
[3] = tested on: six pediatric ALL cell lines; assay: 4-HPR and D,L-threo-PPMP cytotoxicity in ALL cell line panel; type: cell-based
NALL-1 = assay: DIMSCAN cytotoxicity, ALL cell line NALL-1; type: cell-based; settings: 4-HPR+PPMP 1:1, +96 hours
From the text: as §2, §3

CEM = assay: DIMSCAN cytotoxicity, ALL cell line CEM; type: cell-based; settings: 4-HPR+PPMP 1:1 molar ratio, +96 hours
From the text: as §1

[4] = tested on: solid tumor and ALL cell lines; assay: Effect of de novo ceramide synthesis inhibitors on 4-HPR-induced ceramide; type: cell-based; settings: in vitro
From the text: (§4) We have determined in solid tumor and ALL cell lines in vitro, that the ceramide increased by 4-HPR treatment was derived from de novo synthesis.

neuroblastoma cell lines = assay: Toxicity of de novo ceramide synthesis inhibitors to neuroblastoma cell lines; type: cell-based
[5] = tested on: MCF-7/tet breast cancer cells
Protocol: MCF-7/tet breast cancer cells exposed to ethanol (controls), 4-HPR(H) or 4-HPR+safingol (3:1 ratio)(H+S), without or with preincubation with L-cycloserine (2 mM)(+C) and assayed by DIMSCAN assay at +96 hrs. 4-HPR (•); 4-HPR/L-cycloserine (O); 4-HPR/safingol (3:1)(▾); 4-HPR/safingol/L-cycloserine (∇); L-cycloserine (2 mM) (□).

[6] = rodents, x 10 days; cited from earlier work
[7] = in vivo; cited from earlier work
[8] = tested on: Ehrlich ascites tumor cells xenografts; settings: in vivo; cited from earlier work
[9] = tested on: human neuroblastoma murine xenograft; assay: Human neuroblastoma murine xenograft models; type: in vivo; settings: combined with 4-HPR
[10] = tested on: PC-3 prostate cancer cells; assay: DIMSCAN cytotoxicity assay in PC-3 cells; type: cell-based; settings: PC-3, combined with 4-HPR, +96 h
From the text: as §1

[11] = tested on: PC-3 prostate cancer cells; assay: Ceramide by [3H]-palmitic acid labeling and thin-layer chromatography, PC-3; settings: PC-3, drug 10 μM, +24 h
Protocol: Lipids were assayed by labeling with [^3H]-palmitic acid and thin-layer chromatography at +24 h. […] Synergy assayed by Combination Index (C.I.): synergy, C.I.<1; additive, C.I.=1; antagonism, C.I.>1. Statistical analysis is by student's t-test.

ceramide synthase = assay: Direct assay of enzymatic activity, ceramide synthase; type: biochemical
From the text: as §4

[12] = low-dose 4-HPR; cited from earlier work
[13] = tested on: two neuroblastoma cell lines; assay: Reactive oxygen species in neuroblastoma cell lines; type: cell-based
From the text: (§5) 4-HPR has been reported to increase Reactive Oxygen Species (ROS) in certain, but not all, solid tumor cell lines and leukemia cell lines in vitro as a mechanism of cytotoxicity. […] We, therefore, have explored alternative mechanisms of 4-HPR cytotoxicity.

[14] = adults, high-dose oral; cited from earlier work
[15] = tested on: normal fibroblasts, bone marrow myeloid progenitors, peripheral blood mononuclear cells, EBV-immortalized lymphoblastoid cell line; assay: 4-HPR cytotoxicity in normal and non-malignant cells; type: cell-based; settings: doses cytotoxic to cancer cell lines in vitro
From the text: Having established the potential of high-dose 4-HPR to treat resistant neuroblastoma, in order to investigate the therapeutic index of 4-HPR, we examined the cytotoxicity of 4-HPR in normal and non-malignant cell lines in vitro. […] Accordingly, 4-HPR cytotoxicity is most likely a malignancy-specific event, and high-dose 4-HPR may have an acceptable therapeutic index in vivo.

[16] = tested on: serine palmitoyltransferase; assay: Direct assay of enzymatic activity, serine palmitoyltransferase; type: biochemical
From the text: as §4

[17] = Continuous venous infusion (c.i.v.) of 4-HPR in rats; type: in vivo
From the text: Utilizing intravenous formulations, we have directly tested continuous venous infusion (c.i.v.) in rats. […] Accordingly, the anti-tumor activity of 4-HPR will be increased by other agents which modulate the metabolism of ceramide, such as inhibitors of glucosylceramide synthase and 1-O-acylceramide synthase.

[18] = tested on: cell lines of neuroblastoma, PNET/Ewing's sarcoma, breast and lung cancer; assay: 4-HPR ceramide increase in tumor cell lines; type: cell-based
From the text: as §5

[19] = tested on: variety of cancer cell lines; settings: cancer cell lines in vitro; cited from earlier work
[20] = Plasma levels after intravenous formulations of 4-HPR; type: in vivo
[21] = tested on: normal fibroblasts, peripheral blood mononuclear cells, EBV-immortalized lymphoid cell line; assay: 4-HPR ceramide in normal and non-transformed cells; type: cell-based; settings: in vitro
From the text: Accordingly, the ability of 4-HPR to increase ceramide by de novo synthesis is most likely a malignancy (transformed phenotype)-specific event. Further, high-dose 4-HPR will have a favorable therapeutic index in vivo. Moreover, second agents that inhibit ceramide catabolism will also have a favorable therapeutic index in combination with 4-HPR, as normal tissues will not increase ceramide in response to 4-HPR.

[22] = pediatrics, oral, cited from earlier work

Compound: CCCCCCCCCCCCCCCC(=O)NC(CN1CCOCC1)C(O)c1ccccc1 [D,L-threo-PPMP, D,L-threo-(1-phenyl-2-hexadecanoylamino-3-morpholino-1-propanol)]
- Combination Index (C.I.) (NALM-6): < 1
- 4-HPR-induced ceramide level ([1]; +24 h): even more strongly increased
- 4-HPR-induced glucosylceramide level ([1]; +24 h): prevented glucosylceramide formation
- Combination Index (C.I.) (MOLT-3): < 1
- Combination Index (C.I.) (MOLT-4): < 1
- synergy of 4-HPR cytotoxicity (in words) [2]: more potently
- Combination Index (C.I.) (SMS-SB; 3 μM): > 1
- Combination Index (C.I.) (SMS-SB; 6 μM): > 1
- Combination Index (C.I.) (SMS-SB; 9 μM): 1
- activity relative to PDMP (intact cells): 10-20 times
- ceramide (ALL cell lines): increased ceramide
- glucosylceramide formation (ALL cell lines): decreased glucosylceramide formation
- number of ALL cell lines in which 4-HPR cytotoxicity was synergized ([3]; pediatric ALL cell lines): four of six
- Combination Index (C.I.) (NALL-1; NALL-1, 3 μM): > 1
- Combination Index (C.I.) (NALL-1; NALL-1, 6 μM): 1
- Combination Index (C.I.) (NALL-1; NALL-1, 9 μM): < 1
- Combination Index (C.I.) (CEM): 1

Compound: N[C@H]1CONC1=O [L-cycloserine]
- effect on ceramide increase caused by 4-HPR treatment [4]: prevented the increase of ceramide
- toxicity as single agents (neuroblastoma cell lines): proved toxic of themselves
- effect on 4-HPR-induced ceramide [5]: prevented ceramide increase

Compound: CCCCCCCCCCCCCCCC(=O)N[C@@H](CN1CCOCC1)[C@@H](O)c1ccccc1 [L-threo-PPMP]
- 4-HPR-induced glycosylceramide increase ([1]; drugs at 10 μM, preliminary): did not

Compound: CCCCCCCCCC(=O)NC(CN1CCOCC1)C(O)c1ccccc1 (stereo not drawn) [PDMP, 1-phenyl-2-[decanoylamino]-3; morpholino-1-propanol]
- well tolerated dose [6]: ≤ 120 mg/kg/day
- half-life [7]: approximately 1 hour
- anti-tumor effect [8]: cures

Compound: CCCCCCCCCCCCCCC[C@H](O)[C@@H](N)CO [safingol, L-threo-dihydrosphingosine]
- effect on anti-tumor activity of 4-HPR [9]: significantly increase the anti-tumor activity of 4-HPR

Compound: fumonisin B
- effect on ceramide increase caused by 4-HPR treatment [4]: prevented the increase of ceramide
- toxicity as single agents (neuroblastoma cell lines): proved toxic of themselves

Compound: CCCCCCCCCCCCCCCC(=O)NC(CN1CCOCC1)C(O)c1ccccc1 (single isomer, unassigned) [D-threo-PPMP, D-threo-stereoisomer of 1-phenyl-2-palmitoylamino-3-morpholino-1-propanol]
- Combination Index (C.I.) of cytotoxic synergy with 4-HPR [10]: < 1
- 4-HPR-induced ceramide ([1]; drugs at 10 μM, FIG. 9 left panel, preliminary): increased 4-HPR-induced ceramide more than did L-threo-PPMP
- 4-HPR-induced glycosylceramide increase ([1]; drugs at 10 μM, preliminary): prevented
- synergy of 4-HPR cytotoxicity (in words) [2]: synergizes 4-HPR cytotoxicity more potently than does L-threo-PPMP
- ceramide in 4-HPR-treated cells [11]: increased ceramide

Compound: CC1=C(/C=C/C(C)=C/C=C/C(C)=C/C(=O)Nc2ccc(O)cc2)C(C)(C)CCC1 [4-HPR, N-(4-hydroxyphenyl)retinamide]
- ceramide level ([1]; 4-HPR 10 μM alone, +24 h): modestly increased
- ceramide synthase activity (ceramide synthase): stimulated the activities
- reduction in premalignant oral lesions (leukoplakia) [12]: 30%
- Reactive Oxygen Species (ROS) [13]: increased ROS
- recommended 'practical' dose for Phase II studies [14]: 1800 mg/m^2/day
- toxicity to normal and non-malignant cells [15]: minimally toxic
- serine palmitoyltransferase activity [16]: stimulated the activities
- levels of 4-HPR in plasma and tissues [17]: high, sustained levels
- increase of ceramide ([18]; dose- and time-dependent, in vitro, 'up to'): up to 13 fold
- time at which ceramide increase began ([18]; post exposure): less than 2 hrs
- 4-HPR concentrations that are cytotoxic [19]: 1 to 12 µM
- 4-HPR cytotoxicity ([3]; all six tested ALL cell lines in vitro): multi-log cytotoxicity
- systemic toxicity ([20]; dog, in vivo, iv): minimal systemic toxicity
- 4-HPR plasma levels ([20]; intravenous formulations, rodent and canine models): 50 to 150 µM
- ceramide in normal and non-transformed cells [21]: only minimally increased ceramide
- maximally tolerated dose (MTD) ([22]; 7 days every 3 weeks): 2475 mg/m^2/day
- systemic toxicity ([22]; at MTD): minimal systemic toxicity

Compound: CCCCCCCCCCCCCCCC(=O)NC(CN1CCOCC1)C(O)c1ccccc1 [D,L-erythro-PPMP]
- 4-HPR-induced ceramide level ([1]; +24 h): further increased
- 4-HPR-induced glucosylceramide level ([1]; +24 h): did not affect
